According to US20080119530A1, “Method for treatment and prevention of ultraviolet light induced skin pathologies” (priority 2006, published 2008):

What was measured:
[1] = current Erbb2-targeted therapies; cited from earlier work
[2] = tested on: primary keratinocytes; conditions: cited from earlier work
[3] = tested on: Tg.AC mice; experiment: UV-induced skin tumorigenesis in v-rasHa transgenic Tg.AC mice; format: in vivo, mouse
Description: Animals. Homozygous v-rasHa transgenic mice on an FVB/N background were used in in vivo experiments. To obtain keratinocytes with genetic ablation of Erbb2, loxP sites were inserted flanking exon 2 of Erbb2 such that splicing from exon1 to downstream introns upon Cre recombinase expression creates a frameshift mutation. Mice were maintained in our animal facility and provided with Purina lab chow (Nestle Purina PetCare, St. Louis, Mo.) and water ad libitum. The dorsal skin was clipped one day before treatment using electric clippers (Wahl, Sterling, II) and shaved on the day of treatment with a Remington Microscreen shaver (Madison, N.C.). […] The Ultraviolet-B TL 40W/12 RS bulbs (Philips, Somerset, N.J.) used emitted approximately 30% UVA, 70% UVB and <1% UVC, with a total output of 470 μW/cm^2, as measured with radiometric photodetector probes (Newport, Irvine, Calif.). For tumor experiments, homozygous Tg.AC mice were treated and exposed twice with an interval of 7 d. Tumor number was counted and tumor volume measured weekly using calipers. Skin-fold thickness was measured using calipers (Mitutoyo, Aurora, Ill.) to lightly pinch the dorsal skin. All animal procedures were performed in accordance with American Association of Laboratory Animal Care guidelines and approved by Creighton University's Institutional Animal Care and Use Committee.
Statistical methods. The tumor experiment was analyzed using two-way ANOVA. Statistical significance in other experiments was assessed using two-way ANOVA or Student's t-test with Bonferroni post-test. All experiments, excluding the tumor experiment, were replicated several times and consistent results obtained.
The skin tumorigenesis experiment was performed in v-ras^Ha transgenic Tg.AC mice because of their enhanced sensitivity to UV-induced skin tumorigenesis (13; 52). […] While the vehicle-treated mice continued to accrue tumors throughout the duration of the experiment, the AG825-treated group reached a plateau in tumor number by 7 weeks after the first UV exposure. By the end of the experiment, mean tumor volume was also 70% less in the AG825-treated group when compared to the vehicle control. Representative tumors from each treatment were examined histologically and all were benign squamous papillomas with similar differentiation status.
Upon activation, Erbb2 heterodimerizes with either EGFR or Erbb3 to transduce signals. Support for the hypothesis that Erbb2 increases skin carcinogenesis comes from our investigations of the functions of its dimerization partner EGFR. A tumor study was conducted to assess the role of EGFR in the clonal expansion of transformed cells to form benign tumors in the skin of v-ras^Ha transgenic Tg.AC mice. Inhibition of EGFR with the tyrphostin inhibitor AG1478 decreased the number of tumors that developed by about 50% in UV-exposed v-rasHa transgenic mice. Mean tumor volume was 80% less upon inhibition of EGFR-mediated signaling when compared to, UV-exposed and vehicle-treated controls.

[4] = tested on: Cdc25a; experiment: Cdc25a immunoblotting in keratinocytes; format: cell-based, mouse; conditions: vs appropriate controls
Procedure: Immunoblotting. Flash frozen skin was ground with a mortar and pestle on dry ice, homogenized in lysis buffer containing 10 mM Tris (pH 7.4), 150 mM NaCl, 10% glycerol, 1% Triton X-100, 1 mM EDTA, Complete Protease Inhibitor Cocktail (Roche, Germany), 1 mM Na3V O4, 1.5 μM EGTA, and 10 μM NaF. Protein was quantified using the Coomassie Brilliant Blue G-250 protein assay (Bio-Rad, Hercules, Calif.). The evenness of loading and transfer was determined by staining with Ponceau S and by actin immunoblotting. […]
Cell culture. […] Transfection efficiency was quantified by determining the proportion of the cells that incorporated the fluorescent Cy3-conjugated siRNA or GFP one day post-transfection. […]
In order to understand how Erbb2 regulates S-phase progression following UV irradiation, signaling pathways known to regulate progression into and through S-phase were examined. […] The effect of abrogation of Erbb2 on Cdc25a occurred post-transcriptionally, since no decrease in Cdc25a mRNA was detected in our microarray analysis using the Erbb2 inhibitor (32). […]

| Compound | skin toxicity [1] | S-phase arrest in keratinocytes by chemotherapeutic agents [2] | other results |
| --- | --- | --- | --- |
| COCC(=O)NC/C=C/c1ccc2ncnc(Nc3ccc(Oc4ccc(C)nc4)c(C)c3)c2c1 [CP-724714] | Low incidence |  |  |
| O=c1[nH]cc(F)c(=O)[nH]1 [5-FU, 5-fluorouracil] |  | cause S-phase arrest |  |
| pertuzumab: current Erbb2-targeted therapy | Low incidence |  |  |
| COc1cc2ncnc(Nc3cccc(Cl)c3)c2cc1OC [AG1478] |  |  | mean tumor volume less than UV-exposed vehicle-treated controls ([3]; EGFR inhibition): 80%; decrease in the number of tumors that developed ([3]; UV-exposed v-rasHa transgenic mice, EGFR inhibition): about 50%; UV-induced carcinogenesis (FIG. 6) ([3]; topical treatment 2 h prior to UV irradiation): suppress; Cdc25a immunoreactivity [4]: not decreased |
| CC[C@@]1(O)C(=O)OCc2c1cc1n(c2=O)Cc2cc3ccccc3nc2-1 [camptothecin] |  | cause S-phase arrest |  |
